Values belong to the molecule of their own block, whether it stands above or below them.
Assays:
[1] = target: T1, Prostaglandin G/H synthase 1 (Ovis aries, UniProt P05979); assay: Inhibition of ovine COX-1 preincubated for 2 mins prior to arachidonic acid addition by enzyme immuno assay
T1 sequence (P05979 whole entry): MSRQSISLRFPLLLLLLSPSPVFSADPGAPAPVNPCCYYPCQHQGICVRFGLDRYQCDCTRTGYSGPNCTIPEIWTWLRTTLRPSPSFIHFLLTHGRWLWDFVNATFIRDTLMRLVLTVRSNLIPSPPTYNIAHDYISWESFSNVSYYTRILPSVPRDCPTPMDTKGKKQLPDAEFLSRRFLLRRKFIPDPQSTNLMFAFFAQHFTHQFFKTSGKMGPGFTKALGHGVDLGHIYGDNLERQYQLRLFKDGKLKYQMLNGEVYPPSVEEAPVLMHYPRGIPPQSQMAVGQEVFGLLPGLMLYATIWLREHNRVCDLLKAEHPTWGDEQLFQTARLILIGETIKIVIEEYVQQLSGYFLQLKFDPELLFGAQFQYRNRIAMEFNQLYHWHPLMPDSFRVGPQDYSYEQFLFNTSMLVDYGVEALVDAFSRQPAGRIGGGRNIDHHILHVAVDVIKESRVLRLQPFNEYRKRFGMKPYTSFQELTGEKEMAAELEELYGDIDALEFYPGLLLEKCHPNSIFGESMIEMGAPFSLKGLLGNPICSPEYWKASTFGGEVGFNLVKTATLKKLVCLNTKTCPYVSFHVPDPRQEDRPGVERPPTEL

[2] = target: T2, Prostaglandin G/H synthase 2 (Homo sapiens, UniProt P35354); assay: Inhibition of human recombinant COX-2 preincubated for 2 mins prior to arachidonic acid addition by enzyme immuno assay
T2 sequence (P35354 whole entry): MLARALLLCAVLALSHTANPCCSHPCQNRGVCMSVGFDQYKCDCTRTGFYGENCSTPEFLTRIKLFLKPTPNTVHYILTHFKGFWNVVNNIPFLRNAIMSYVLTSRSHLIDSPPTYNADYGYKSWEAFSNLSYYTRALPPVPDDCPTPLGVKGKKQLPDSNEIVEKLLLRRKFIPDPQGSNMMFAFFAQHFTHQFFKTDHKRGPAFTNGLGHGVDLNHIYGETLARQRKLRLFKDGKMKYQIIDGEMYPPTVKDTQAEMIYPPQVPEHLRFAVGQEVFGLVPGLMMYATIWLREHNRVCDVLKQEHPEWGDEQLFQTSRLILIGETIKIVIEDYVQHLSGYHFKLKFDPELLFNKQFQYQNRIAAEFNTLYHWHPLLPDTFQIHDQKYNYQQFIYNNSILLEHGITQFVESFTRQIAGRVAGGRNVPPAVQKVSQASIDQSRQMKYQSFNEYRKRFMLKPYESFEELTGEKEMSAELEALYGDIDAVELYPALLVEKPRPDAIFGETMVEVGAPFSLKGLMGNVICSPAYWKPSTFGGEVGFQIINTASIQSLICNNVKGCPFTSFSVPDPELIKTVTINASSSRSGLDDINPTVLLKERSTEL

[3] = Selectivity index, ratio of IC50 for ovine COX-1 to IC50 for human recombinant COX-2
Rattus norvegicus [4] = assay: Antiinflammatory activity in rat assessed as inhibition of carrageenan-induced paw edema at 50 mg/kg, po measured after 3hrs post carrageenan challenge; format: functional
Rattus norvegicus [5] = assay: Ulcerogenic activity in rat assessed as ulcer index at 100 mg/kg; format: toxicity, organism-based; details: in vivo
Rattus norvegicus [6] = assay: Gastrointestinal toxicity in rat assessed as ulcer incidence at 100 mg/kg; format: organism-based; details: in vivo

SMILES: COc1ccc(C2CC(c3ccc(S(C)(=O)=O)cc3)=NN2c2ccc(S(N)(=O)=O)cc2)cc1 (stereo not given)
IC50 [1]: 6.5 µM
IC50 [2]: 2.11 µM
Ratio IC50 [3]: 3.1
inhibition in vivo at 50 mg/kg (Rattus norvegicus [4]): 42.4%

SMILES: COc1cccc(C2CC(c3ccc(S(C)(=O)=O)cc3)=NN2c2ccc(S(N)(=O)=O)cc2)c1 (stereo not given)
IC50 [1]: 7.1 µM
IC50 [2]: 1.76 µM
Ratio IC50 [3]: 4.11
inhibition in vivo at 50 mg/kg (Rattus norvegicus [4]): 38.3%

SMILES: COc1cc(C2CC(c3ccc(S(C)(=O)=O)cc3)=NN2c2ccc(S(N)(=O)=O)cc2)cc(OC)c1OC (stereo not given)
IC50 [1]: 12.3 µM
IC50 [2]: 4.67 µM
Ratio IC50 [3]: 2.63
inhibition in vivo at 50 mg/kg (Rattus norvegicus [4]): 73.7%
UI (Rattus norvegicus [5]): 5.92
Activity (Rattus norvegicus [6]): 5%

SMILES: COc1ccc(C2CC(c3ccc(S(C)(=O)=O)cc3)=NN2c2ccc(C(=O)O)cc2)cc1OC (stereo not given)
IC50 [1]: 9.7 µM
IC50 [2]: 3.74 µM
Ratio IC50 [3]: 2.61
inhibition in vivo at 50 mg/kg (Rattus norvegicus [4]): 6.11%

SMILES: Cc1ccc(-c2cc(C(F)(F)F)nn2-c2ccc(S(N)(=O)=O)cc2)cc1 [CELECOXIB]
inhibition in vivo at 50 mg/kg (Rattus norvegicus [4]): 65.3%
UI (Rattus norvegicus [5]): 4.85
Activity (Rattus norvegicus [6]): 4.2%

SMILES: COc1ccc2c(c1)c(CC(=O)O)c(C)n2C(=O)c1ccc(Cl)cc1 [INDOMETHACIN]
UI (Rattus norvegicus [5]): 12.3
Activity (Rattus norvegicus [6]): 8.3%

SMILES: CS(=O)(=O)c1ccc(C2=NN(c3ccc(S(N)(=O)=O)cc3)C(c3ccc(F)cc3)C2)cc1 (stereo not given)
IC50 [1]: 9.7 µM
IC50 [2]: 3.41 µM
Ratio IC50 [3]: 2.91
inhibition in vivo at 50 mg/kg (Rattus norvegicus [4]): 65.7%
UI (Rattus norvegicus [5]): 7.7
Activity (Rattus norvegicus [6]): 6%

SMILES: COc1cc(C2CC(c3ccc(S(C)(=O)=O)cc3)=NN2c2ccc(C(=O)O)cc2)cc(OC)c1OC (stereo not given)
IC50 [1]: 13.4 µM
IC50 [2]: 5.94 µM
Ratio IC50 [3]: 2.51
inhibition in vivo at 50 mg/kg (Rattus norvegicus [4]): 66.2%
UI (Rattus norvegicus [5]): 6.85
Activity (Rattus norvegicus [6]): 5.5%

SMILES: CS(=O)(=O)c1ccc(C2=NN(c3ccc(S(N)(=O)=O)cc3)C(c3ccccc3)C2)cc1 (stereo not given)
IC50 [1]: 5.4 µM
IC50 [2]: 1.62 µM
Ratio IC50 [3]: 3.33
inhibition in vivo at 50 mg/kg (Rattus norvegicus [4]): 54.3%

SMILES: COc1ccc(C2CC(c3ccc(S(C)(=O)=O)cc3)=NN2c2ccc(S(N)(=O)=O)cc2)cc1OC (stereo not given)
IC50 [1]: 8.7 µM
IC50 [2]: 1.98 µM
Ratio IC50 [3]: 4.41
inhibition in vivo at 50 mg/kg (Rattus norvegicus [4]): 45.5%

SMILES: CS(=O)(=O)c1ccc(C2=NN(c3ccc(S(N)(=O)=O)cc3)C(c3cccs3)C2)cc1 (stereo not given)
IC50 [1]: 6.4 µM
IC50 [2]: 1.75 µM
Ratio IC50 [3]: 3.71
inhibition in vivo at 50 mg/kg (Rattus norvegicus [4]): 36.4%

SMILES: CS(=O)(=O)c1ccc(C2=NN(c3ccc(C(=O)O)cc3)C(c3cccs3)C2)cc1 (stereo not given)
IC50 [1]: 4.7 µM
IC50 [2]: 1.16 µM
Ratio IC50 [3]: 4.11
inhibition in vivo at 50 mg/kg (Rattus norvegicus [4]): 35.6%

The next lines start with results.

IC50 [1]: 4.9 µM
IC50 [2]: 0.98 µM
Ratio IC50 [3]: 5
SMILES: CS(=O)(=O)c1ccc(C2=NN(c3ccc(C(=O)O)cc3)C(c3ccccc3)C2)cc1 (stereo not given)
inhibition in vivo at 50 mg/kg (Rattus norvegicus [4]): 56.4%

IC50 [1]: 9.7 µM
IC50 [2]: 2.84 µM
Ratio IC50 [3]: 3.42
SMILES: CS(=O)(=O)c1ccc(C2=NN(c3ccc(C(=O)O)cc3)C(c3ccc(F)cc3)C2)cc1 (stereo not given)
inhibition in vivo at 50 mg/kg (Rattus norvegicus [4]): 42.3%

IC50 [1]: 8.3 µM
IC50 [2]: 2.67 µM
Ratio IC50 [3]: 3.11
SMILES: CS(=O)(=O)c1ccc(C2=NN(c3ccc(S(N)(=O)=O)cc3)C(c3ccc(Cl)cc3)C2)cc1 (stereo not given)
inhibition in vivo at 50 mg/kg (Rattus norvegicus [4]): 42.4%

IC50 [1]: 10.1 µM
IC50 [2]: 4.71 µM
Ratio IC50 [3]: 2.21
SMILES: COc1cccc(C2CC(c3ccc(S(C)(=O)=O)cc3)=NN2c2ccc(C(=O)O)cc2)c1 (stereo not given)
inhibition in vivo at 50 mg/kg (Rattus norvegicus [4]): 31.3%

IC50 [1]: 11.4 µM
IC50 [2]: 3.98 µM
Ratio IC50 [3]: 2.91
SMILES: CS(=O)(=O)c1ccc(C2=NN(c3ccc(C(=O)O)cc3)C(c3ccc(Cl)cc3)C2)cc1 (stereo not given)
inhibition in vivo at 50 mg/kg (Rattus norvegicus [4]): 50.4%

IC50 [1]: 6.6 µM
IC50 [2]: 2.17 µM
Ratio IC50 [3]: 3.11
SMILES: COc1ccc(C2CC(c3ccc(S(C)(=O)=O)cc3)=NN2c2ccc(C(=O)O)cc2)cc1 (stereo not given)
inhibition in vivo at 50 mg/kg (Rattus norvegicus [4]): 55.4%

Source: ChEMBL document CHEMBL3734672, “Synthesis, cyclooxygenase inhibition, anti-inflammatory evaluation and ulcerogenic liability of novel triarylpyrazoline derivatives as selective COX-2 inhibitors” (Bioorg Med Chem Lett, 2015)
